From ChEMBL document CHEMBL3046509, “Synthesis and structure--activity relationships of substituted cinnamic acids and amide analogues: a new class of herbicides” (2009)

Experiments:
Experiment in all cases: whole plant or invertebrate
Assay type in all cases: functional
Conditions in all cases: Raphanus sativus, Japanese White, 120 h
Radish [1] = system: Radish
Description: Herbicidal activity against Raphanus sativus var.Japanese White (radish) assessed as inhibition of seed germination at 50 ppm at 25 degC measured after 5 days

Radish [2] = system: Radish; remark: listed apart in the source
Description: Herbicidal activity against Raphanus sativus var.Japanese White (radish) assessed as inhibition of seed germination at 100 ppm at 25 degC measured after 5 days

Radish [3] = system: Radish; remark: listed apart in the source
Description: Herbicidal activity against Raphanus sativus var.Japanese White (radish) assessed as inhibition of seed germination at 200 ppm at 25 degC measured after 5 days

For `O=C(/C=C/c1ccccc1[N+](=O)[O-])Nc1ccccc1`, which inhibition at 50 ppm (Radish [1]) is on record?
The inhibition at 50 ppm was 73.3%.

What about the inhibition at 100 ppm (Radish [2]) of the same compound?
Its inhibition at 100 ppm is 86.7%.

What about the inhibition at 200 ppm (Radish [3]) of the same compound?
The inhibition at 200 ppm was 100%.

For `COc1ccc(/C=C/C(=O)Nc2ccc(C)cc2)cc1`, which inhibition at 50 ppm (Radish [1]) is on record?
Its inhibition at 50 ppm is 70%.

What about the inhibition at 100 ppm (Radish [2]) of the same compound?
The inhibition at 100 ppm was 93.3%.

And the inhibition at 200 ppm (Radish [3])?
Its inhibition at 200 ppm is 100%.

`O=C(O)/C=C/c1ccccc1[N+](=O)[O-]` was tested. Which inhibition at 50 ppm (Radish [1]) did it give?
The inhibition at 50 ppm was 70%.

What about the inhibition at 100 ppm (Radish [2]) of the same compound?
The inhibition at 100 ppm was 86.7%.

And the inhibition at 200 ppm (Radish [3])?
The inhibition at 200 ppm was 100%.

`O=C(/C=C/c1ccccc1[N+](=O)[O-])Nc1ccccc1Cl` was tested. Which inhibition at 50 ppm (Radish [1]) did it give?
The inhibition at 50 ppm was 86.7%.

What about the inhibition at 100 ppm (Radish [2]) of the same compound?
The inhibition at 100 ppm was 93.3%.

And the inhibition at 200 ppm (Radish [3])?
Its inhibition at 200 ppm is 100%.

How did the inhibition at 50 ppm (Radish [1]) turn out when `O=C(/C=C/c1cccc([N+](=O)[O-])c1)Nc1ccccc1Cl` was run?
Its inhibition at 50 ppm is 83.3%.

What about the inhibition at 100 ppm (Radish [2]) of the same compound?
Its inhibition at 100 ppm is 93.3%.

What about the inhibition at 200 ppm (Radish [3]) of the same compound?
Its inhibition at 200 ppm is 100%.

Which results are given for `O=C(/C=C/c1ccc([N+](=O)[O-])cc1)Nc1ccccc1Cl`?
inhibition at 50 ppm (Radish [1]): 80%; inhibition at 100 ppm (Radish [2]): 86.7%; inhibition at 200 ppm (Radish [3]): 100%

For `O=C(/C=C/c1cccc(Cl)c1)Nc1ccccc1Cl`, which inhibition at 50 ppm (Radish [1]) is on record?
The inhibition at 50 ppm was 33.3%.

What about the inhibition at 100 ppm (Radish [2]) of the same compound?
Its inhibition at 100 ppm is 53.3%.

What about the inhibition at 200 ppm (Radish [3]) of the same compound?
The inhibition at 200 ppm was 76.7%.

With `COc1ccc(/C=C/C(=O)Nc2ccccc2Cl)cc1` as the compound, how does the inhibition at 50 ppm (Radish [1]) read?
Its inhibition at 50 ppm is 76.7%.

And the inhibition at 100 ppm (Radish [2])?
The inhibition at 100 ppm was 83.3%.

What about the inhibition at 200 ppm (Radish [3]) of the same compound?
The inhibition at 200 ppm was 96.7%.

What does the source list for `O=C(/C=C/c1cccc(O)c1)Nc1ccccc1Cl`?
inhibition at 50 ppm (Radish [1]): 56.7%; inhibition at 100 ppm (Radish [2]): 80%; inhibition at 200 ppm (Radish [3]): 93.3%

`O=C(O)/C=C/c1cccc(O)c1` was tested. Which inhibition at 50 ppm (Radish [1]) did it give?
Its inhibition at 50 ppm is 56.7%.

And the inhibition at 100 ppm (Radish [2])?
Its inhibition at 100 ppm is 86.7%.

What about the inhibition at 200 ppm (Radish [3]) of the same compound?
Its inhibition at 200 ppm is 100%.

`O=C(O)/C=C/c1ccc([N+](=O)[O-])cc1` was tested. Which inhibition at 50 ppm (Radish [1]) did it give?
Its inhibition at 50 ppm is 70%.

What about the inhibition at 100 ppm (Radish [2]) of the same compound?
The inhibition at 100 ppm was 93.3%.

What about the inhibition at 200 ppm (Radish [3]) of the same compound?
The inhibition at 200 ppm was 96.7%.

How did the inhibition at 50 ppm (Radish [1]) turn out when `O=C(/C=C/c1cccc(Cl)c1)Nc1ccccc1` [3-CHLORO-CINNAMANILIDE] was run?
The inhibition at 50 ppm was 70%.

What about the inhibition at 100 ppm (Radish [2]) of the same compound?
The inhibition at 100 ppm was 93.3%.

What about the inhibition at 200 ppm (Radish [3]) of the same compound?
The inhibition at 200 ppm was 100%.

For `O=C(O)/C=C/c1cccc(Cl)c1` [3-CHLORO-CINNAMIC ACID], which inhibition at 50 ppm (Radish [1]) is on record?
The inhibition at 50 ppm was 53.3%.

What about the inhibition at 100 ppm (Radish [2]) of the same compound?
Its inhibition at 100 ppm is 76.7%.

And the inhibition at 200 ppm (Radish [3])?
Its inhibition at 200 ppm is 93.3%.

`O=C(/C=C/c1cccc(O)c1)Nc1ccccc1` [3-HYDROXY-CINNAMANILIDE] was tested. Which inhibition at 50 ppm (Radish [1]) did it give?
The inhibition at 50 ppm was 53.3%.

What about the inhibition at 100 ppm (Radish [2]) of the same compound?
Its inhibition at 100 ppm is 86.7%.

And the inhibition at 200 ppm (Radish [3])?
Its inhibition at 200 ppm is 100%.

Which inhibition at 50 ppm (Radish [1]) does the source give for `O=C(/C=C/c1cccc([N+](=O)[O-])c1)Nc1ccccc1` [3-NITRO-CINNAMANILIDE] here?
The inhibition at 50 ppm was 70%.

And the inhibition at 100 ppm (Radish [2])?
Its inhibition at 100 ppm is 73.3%.

And the inhibition at 200 ppm (Radish [3])?
The inhibition at 200 ppm was 100%.

What does the source list for `O=C(O)/C=C/c1cccc([N+](=O)[O-])c1` [3-NITRO-CINNAMIC ACID]?
inhibition at 50 ppm (Radish [1]): 70.3%; inhibition at 100 ppm (Radish [2]): 80%; inhibition at 200 ppm (Radish [3]): 100%

Which inhibition at 50 ppm (Radish [1]) does the source give for `COc1ccc(/C=C/C(=O)Nc2ccccc2)cc1` [4-METHOXY-CINNAMANILIDE] here?
Its inhibition at 50 ppm is 53.3%.

And the inhibition at 100 ppm (Radish [2])?
Its inhibition at 100 ppm is 76.7%.

What about the inhibition at 200 ppm (Radish [3]) of the same compound?
Its inhibition at 200 ppm is 93.3%.

How did the inhibition at 50 ppm (Radish [1]) turn out when `COc1ccc(/C=C/C(=O)O)cc1` [4-METHOXYCINNAMIC ACID] was run?
The inhibition at 50 ppm was 56.7%.

And the inhibition at 100 ppm (Radish [2])?
Its inhibition at 100 ppm is 66.7%.

What about the inhibition at 200 ppm (Radish [3]) of the same compound?
The inhibition at 200 ppm was 93.3%.

What does the source list for `Cc1ccc(NC(=O)/C=C/c2ccccc2[N+](=O)[O-])cc1` [4-METHYL-(2'-NITRO)CINNAMANILIDE]?
inhibition at 50 ppm (Radish [1]): 63.3%; inhibition at 100 ppm (Radish [2]): 80%; inhibition at 200 ppm (Radish [3]): 93.3%

Which results are given for `Cc1ccc(NC(=O)/C=C/c2cccc(Cl)c2)cc1` [4-METHYL-(3'-CHLORO)CINNAMANILIDE]?
inhibition at 50 ppm (Radish [1]): 70%; inhibition at 100 ppm (Radish [2]): 83.3%; inhibition at 200 ppm (Radish [3]): 93.3%

Which results are given for `Cc1ccc(NC(=O)/C=C/c2cccc([N+](=O)[O-])c2)cc1` [4-METHYL-(3'-NITRO)CINNAMANILIDE]?
inhibition at 50 ppm (Radish [1]): 73.3%; inhibition at 100 ppm (Radish [2]): 86.7%; inhibition at 200 ppm (Radish [3]): 96.7%

What does the source list for `O=C(/C=C/c1ccccc1[N+](=O)[O-])Nc1ccc([N+](=O)[O-])cc1` [4-NITRO-(2'-NITRO)CINNAMANILIDE]?
inhibition at 50 ppm (Radish [1]): 73.3%; inhibition at 100 ppm (Radish [2]): 86.7%; inhibition at 200 ppm (Radish [3]): 96.7%

With `O=C(/C=C/c1ccc([N+](=O)[O-])cc1)Nc1ccc([N+](=O)[O-])cc1` [4-NITRO-(4'-NITRO)CINNAMANILIDE] as the compound, how does the inhibition at 50 ppm (Radish [1]) read?
Its inhibition at 50 ppm is 60%.

What about the inhibition at 100 ppm (Radish [2]) of the same compound?
Its inhibition at 100 ppm is 66.7%.

And the inhibition at 200 ppm (Radish [3])?
The inhibition at 200 ppm was 93.3%.

Which results are given for `O=C(/C=C/c1ccc([N+](=O)[O-])cc1)Nc1ccccc1` [4-NITRO-CINNAMANILIDE]?
inhibition at 50 ppm (Radish [1]): 83.3%; inhibition at 100 ppm (Radish [2]): 90%; inhibition at 200 ppm (Radish [3]): 100%

Which results are given for `O=C(O)/C=C/c1ccc(O)cc1` [COUMARIC ACID]?
inhibition at 50 ppm (Radish [1]): 53.3%; inhibition at 100 ppm (Radish [2]): 73.3%; inhibition at 200 ppm (Radish [3]): 100%

`CSc1nnc(C(C)(C)C)c(=O)n1N` [METRIBUZIN] was tested. Which inhibition at 50 ppm (Radish [1]) did it give?
Its inhibition at 50 ppm is 80%.

And the inhibition at 100 ppm (Radish [2])?
Its inhibition at 100 ppm is 93.3%.

What about the inhibition at 200 ppm (Radish [3]) of the same compound?
Its inhibition at 200 ppm is 100%.
